The source of these data is patent US20170183318A1, “AMIDE COMPOUNDS, METHODS FOR PREPARATION, AND USE THEREOF AS AGENTS FOR THE TREATMENT AND PREVENTION OF DISEASES CAUSED BY RNA- AND/OR DNA-CONTAINING VIRUSES, AND CONCOMITANT DISEASES” (OBSCHESTVO S OGRANICHENNOI OTVETSTVENNOSTIYU …, priority 2014, published 2017).

The term mortality denotes the share of the test organisms that died.

The test system of assay [1] is human respiratory syncytial virus (strain A2). Kind of assay: Antiviral activity against RS virus in a murine model of suppressed immune system (lung edema). The class given is in vivo. The conditions noted are these: Balb/c mice, cyclophosphan-suppressed, RS-virus pneumonia; 30 mg/kg once daily for 5 days; M ± SD, n = 5; scores from possible 4. The procedure, abridged:
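Balb/c mice immunosuppressed with cyclophosphan 100 mg/kg i.p. 5 days before intranasal infection (virus titer 5×10^6 TCID50/mL). Compounds given 30 mg/kg once daily for 5 days, starting 24 h post-infection. Activity scored as reduction in lung edema versus infected control on day 5.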

In assay [2] the test system is Coxsackie A2 virus (strain HCXV A2). Nature of the assay: Antiviral activity against Coxsackie virus in vivo (mortality and life expectancy of infected mice). The conditions noted are these: for inhibition in vivo at 30 mg/kg / mortality at 30 mg/kg: Mus musculus, po; for inhibition in vivo at 30 mg/kg: 168 h, read-out: Protective index (%); for mortality at 30 mg/kg: 360 h, read-out: Total mortality, %; for Average life expectancy (days), Compared with control: difference vs virus control; for Average life expectancy (days), Relative: mice infected with 10LD50 HCXV A2. The method in brief: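 White mice (6–7 g), 14–15 per group, infected i.m. with 10LD50 of HCXV A2; compounds 30 mg/kg orally once daily for 7 days from 24 h post-infection, saline placebo. Mortality and weight recorded daily over 15 days versus untreated infected group.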

Assay [3] concerns herpes simplex virus belonging to antigenic type 2. Nature of the assay: Murine model of experimental herpetic meningoencephalitis (mortality). The settings on record: Mus musculus, po, 336 h. The class given is in vivo, white outbred mice. The protocol: In the study, herpes simplex virus belonging to antigenic type 2 was used. White outbred mice weighing 7-8 g were infected i/c (intracerebrally) in a volume of 0.05 ml/mouse comprising a dose of 10LD50. The infectious dose of the virus that caused 100% mortality in mice was 10LD50. Each experimental group comprised 20 mice. Intact animals served as control and were hold in a separate room under the same conditions as the experimental animals. The antiviral activity of the compounds of general formula I was studied by oral administration of the compounds to infected mice once daily at a dose of 30 mg/kg/mouse 24, 48, 72, 96, and 120 hours after infection of the animals with the virus. The mice of the control group were administered placebo (0.2 mL of physiological solution) under the same conditions. The animals were monitored for 14 days after infection by registration the mouse death in the groups.
Each animal was subjected to once-daily observation. The observation included the assessment of general behavior and body condition of animals. The animals were handled according to the International Standards.
The activity of the compounds was evaluated by comparing mortality rates in the groups of animals administered a preparation and placebo.

The subject of the next assay is human adenovirus type 5. Nature of the assay: Model of experimental adenovirus infection (destructive processes in the liver, electron microscopy). The class given is in vivo. The conditions noted are these: newborn Syrian hamsters, 30 mg/kg orally 12, 36, 60 h after infection, liver 72 h after infection, virus control Intensive damages. The protocol: In the study, human adenovirus type 5 was used. In order to play adenovirus infection were used Newborn Syrian hamsters, in which the virus caused disseminated viral infection with damage to liver, lung and heart, were used to reproduce the viral infection. The animals were studied 48 hours after birth. Each group comprised 5 hamsters. The virus was inoculated subcutaneously in a volume of 0.1 mL, at a dose of 10^5 TCID50. The treatment was carried out orally with the compounds of general formula I at a dose of 30 mg/kg of body weight 12, 36, and 60 hours after infection. The animals of the placebo group were administered phosphate buffered saline. Intact animals served as control and were hold in a separate room under the same conditions as the experimental animals. 72 hours after infection, the animals of each group were euthanized, dissected, and the liver was isolated. The therapeutic effect was evaluated by the action on ultrastructural features of the morphogenesis of adenovirus infection in the liver by electron microscopy.

For the next assay, the system named is human virus hRSV. Kind of assay: Antiviral activity against mouse-adapted RS virus (body weight; viral titer in lungs titrated in Hep-2 cells). The class given is in vivo, mice. The conditions noted are these: compounds 30 mg/kg, Ribavirin 40 mg/kg, orally once daily for 5 days, n = 6.
[4] abbreviates: 30 mg/kg orally once daily for 7 days, vs virus control.
Where [5] appears, read: 30 mg/kg orally once daily for 7 days.

Each structure is given as a SMILES string. Read-outs that look alike come from different tables or passages of the source.

For `O=C(O)CCCC(=O)NCCC1CCCN1` (stereo not shown) [Compound 2], the “Degree of lung edema on day 5 after infection, score” value (from here on “Degree of lung edema”) in assay [1] came to 1.95 ± 0.32 score. In assay [2] (setting [4]), the inhibition in vivo at 30 mg/kg is 55.6%. Moreover, the mortality at 30 mg/kg in assay [2] worked out at 28.6%. Also, in assay [2] (setting [5]), the “Average life expectancy (days), Compared with control” value is recorded as “+20.1 days” and the “Average life expectancy (days), Relative” value is 32.3 days. Also, the mortality at 30 mg/kg in assay [3] was 55%. The “Evaluation of damage (intensity of destructive processes in the liver)” value (shortened to “Evaluation of damage”) with human adenovirus type 5 is on record as “Mild damage”.

For `O=C(O)CCCC(=O)NCCC1CCCCN1` (stereo not shown) [Compound 6], the “Degree of lung edema” value in assay [1] amounted to 0.90 ± 0.22 score. The same compound returned a mortality at 30 mg/kg in assay [3] of 60%. Besides, in the assay on human virus hRSV (day 5), the “Body weight of the mice on day 5 after infection with hRSV (M ± SD)” value was 16.47 ± 0.26. Further, in the assay on human virus hRSV (day 7), the “Body weight of the mice on day 7 after infection with hRSV (M ± SD)” value is 17.02 ± 0.29. Moreover, the “Evaluation of damage” value in the assay with human adenovirus type 5 was “Mild damage”.

Regarding `O=C(O)CCCC(=O)NCCCc1c[nH]cn1` [Compound 118], the “Degree of lung edema” value in assay [1] was 1.85 ± 0.45 score. In assay [3], this compound gave a mortality at 30 mg/kg of 70%. Moreover, the “Evaluation of damage” value in the assay with human adenovirus type 5 is “Mild damage”.

For `CC(C)N(CCc1cnc[nH]1)C(=O)CCCC(=O)O` [Compound 141], the “Degree of lung edema” value in assay [1] is 0.55 ± 0.21 score. In assay [3], the mortality at 30 mg/kg came out at 50%. In addition, the “Evaluation of damage” value in the assay on human adenovirus type 5 is listed as “Mild damage”.

On to `O=C(O)CCCC(=O)NCCc1nc2ccccc2s1` [Compound 275], for which the “Degree of lung edema” value in assay [1] was found to be 1.80 ± 0.20 score. In assay [2] (setting [4]), the inhibition in vivo at 30 mg/kg amounted to 40%. The mortality at 30 mg/kg is 42.9% in assay [2] and 60% in assay [3]. In addition, the “Average life expectancy (days), Compared with control” value in assay [2] (setting [5]) is reported as “+9.5 days”. In addition, the “Average life expectancy (days), Relative” value in assay [2] (setting [5]) is recorded as 22.4 days. Besides, the “Evaluation of damage” value with human adenovirus type 5 is “Mild damage”.

`CC(Cc1cnc[nH]1)NC(=O)CCCC(=O)O` (stereo not shown) [Compound 115]: in assay [1], the “Degree of lung edema” value was determined as 1.60 ± 0.5 score. The compound further came in with a mortality at 30 mg/kg in assay [3] of 65%. The “Evaluation of damage” value in the assay on human adenovirus type 5 is recorded as “Mild damage”.

In the case of `O=C(O)CCCC(=O)NCCCc1cccs1` [Compound 34], the “Degree of lung edema” value in assay [1] is 1.75 ± 0.4 score. The inhibition in vivo at 30 mg/kg in assay [2] (setting [4]) came to 22.2%. Moreover, the mortality at 30 mg/kg in assay [2] came out at 50%. Also, in assay [2] (setting [5]), the “Average life expectancy (days), Compared with control” value is listed as “+8.3 days” and the “Average life expectancy (days), Relative” value came to 20.5 days. Further, the mortality at 30 mg/kg in assay [3] came to 70%. Moreover, the “Evaluation of damage” value in the assay with human adenovirus type 5 is given as “Mild damage”.

In the case of `O=C(O)CCCC(=O)NC(Cc1c[nH]cn1)C(=O)O` (stereo not shown) [Compound 251], in assay [1], the “Degree of lung edema” value came out at 0.90 ± 0.21 score. Besides, in assay [2], the inhibition in vivo at 30 mg/kg stood at 33.3% and the mortality at 30 mg/kg stood at 42.9%. For the same compound, in assay [2] (setting [5]), the “Average life expectancy (days), Compared with control” value was “+10.0 days” and the “Average life expectancy (days), Relative” value is reported as 22.2 days. For the same compound, the mortality at 30 mg/kg in assay [3] came out at 65%. Besides, the “Evaluation of damage” value with human adenovirus type 5 is “Mild damage”.

With `Cc1csc(CCNC(=O)CCCC(=O)O)n1` [Compound 197], the “Degree of lung edema” value in assay [1] was determined as 1.15 ± 0.23 score. In assay [2], the inhibition in vivo at 30 mg/kg is 33.3% and the mortality at 30 mg/kg was 42.9%. In assay [2] (setting [5]), the “Average life expectancy (days), Compared with control” value is “+11.2 days” and the “Average life expectancy (days), Relative” value is on record as 22.2 days. Moreover, the mortality at 30 mg/kg in assay [3] came out at 55%. The “Evaluation of damage” value in the assay with human adenovirus type 5 is “Mild damage”.
